For 23 compounds, IC50 results are on record in US10000507B2, “Furo- and thieno-pyridine carboxamide compounds useful as pim kinase inhibitors” (Incyte Corporation, priority 2013, dated 2018).

Common to all, as to assay type: biochemical
The target in one experiment is Pim-1 (Homo sapiens (Human), UniProt P11309). As to the kind of experiment: Pim-1 kinase assay. The settings on record: 1 mM ATP, biotin-labeled BAD peptide substrate; read-out: Pim1 IC50. Summed up:
(§1)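 Biotin-BAD peptide ([…]) phosphorylated with 1 mM ATP by 2.5 pM Pim-1 or 1.25 pM Pim-3, 1 h at 25 °C in Tris pH 7.5, MgCl2, DTT buffer. EDTA stop with anti-phospho-BAD (Ser112) antibody and AlphaScreen streptavidin donor/Protein-A acceptor beads; signal read after 1 h dark incubation.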

In the next experiment the target is Pim-2 (Homo sapiens (Human), UniProt Q9P1W9). Nature of the experiment: Pim-2 kinase assay. The settings on record: 1 mM ATP, fluorescein-labeled CREBtide peptide substrate; read-out: Pim2 IC50. An outline of the steps: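 Phosphorylated CREBtide was detected by terbium anti-pSer133 antibody TR-FRET after EDTA quench and 30 min at room temperature. Reactions ran 2 h at 25 °C with 1 mM ATP, 0.05 μM fluorescein-labelled substrate and 1 nM enzyme in pH 7.5 Tris buffer.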

The target of a further experiment is Pim-3 (Homo sapiens (Human), UniProt Q86V86). As to the kind of experiment: Pim-3 kinase assay. The settings on record: 1 mM ATP, biotin-labeled BAD peptide substrate; read-out: Pim3 IC50. Summed up:
as §1

Pim-1, sequence (P11309 whole entry): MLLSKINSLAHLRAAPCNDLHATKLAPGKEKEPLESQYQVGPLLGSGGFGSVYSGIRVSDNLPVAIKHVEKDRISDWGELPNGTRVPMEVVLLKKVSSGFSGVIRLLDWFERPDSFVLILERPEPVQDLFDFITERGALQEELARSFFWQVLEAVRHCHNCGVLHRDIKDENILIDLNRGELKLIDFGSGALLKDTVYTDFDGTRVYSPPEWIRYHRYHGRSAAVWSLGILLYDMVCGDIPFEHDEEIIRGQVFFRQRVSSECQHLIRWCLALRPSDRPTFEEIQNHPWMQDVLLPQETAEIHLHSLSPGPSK
Pim-2, sequence (Q9P1W9 whole entry): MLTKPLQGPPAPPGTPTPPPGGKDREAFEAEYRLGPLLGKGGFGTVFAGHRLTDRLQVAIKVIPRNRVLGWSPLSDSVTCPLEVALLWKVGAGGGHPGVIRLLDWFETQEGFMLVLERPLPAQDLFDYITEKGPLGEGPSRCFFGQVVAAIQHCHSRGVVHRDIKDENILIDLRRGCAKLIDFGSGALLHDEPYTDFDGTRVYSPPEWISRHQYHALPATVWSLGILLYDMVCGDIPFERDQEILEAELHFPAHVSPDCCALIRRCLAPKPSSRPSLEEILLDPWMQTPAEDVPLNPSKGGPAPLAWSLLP

The term IC50 denotes the concentration that gives 50% inhibition. In the case of `Cn1ncc(NC(=O)c2c(N)oc3cc(Cl)cnc23)c1N1CCCC(N)CC1` (stereo not drawn) [Example 57, 2-Amino-N-[5-(4-aminoazepan-1-yl)-1-methyl-1H-pyrazol-4-yl]-6-chlorofuro[3,2-b]pyridine-3-carboxamide], the IC50 at Pim-1 was at most 10 nM; on Pim-2, 100 to 1000 nM; at Pim-3, at most 10 nM.
For the compound `Cn1ncc(NC(=O)c2c(N)oc3c(Cl)ccnc23)c1N1CCCC(N)CC1` (stereo not drawn) [Example 58, 2-amino-N-[5-(4-aminoazepan-1-yl)-1-methyl-1H-pyrazol-4-yl]-7-chlorofuro[3,2-b]pyridine-3-carboxamide], the 50% inhibitory concentration (IC50) at Pim-1 is at most 10 nM; at Pim-2, 100 to 1000 nM; on Pim-3, at most 10 nM.
With `CCCc1cnc2c(C(=O)Nc3cnn(C)c3N3CCCC(N)CC3)c(N)oc2c1` (stereo not drawn) [Example 59, 2-amino-N-[5-(4-aminoazepan-1-yl)-1-methyl-1H-pyrazol-4-yl]-6-propylfuro[3,2-b]pyridine-3-carboxamide], the IC50 on Pim-1 was at most 10 nM; on Pim-2 it was 10 to 100 nM; at Pim-3, at most 10 nM.
Take `Nc1oc2cccnc2c1C(=O)Nc1cnccc1N1C[C@@H](N)C[C@@H](C(F)(F)F)C1` [Example 60, 2-amino-N-{4-[(3S,5R)-3-amino-5-(trifluoromethyl)piperidin-1-yl]pyridin-3-yl}-furo[3,2-b]pyridine-3-carboxamide]: the IC50 was at most 10 nM on Pim-1, 10 to 100 nM on Pim-2 and at most 10 nM on Pim-3.
For the compound `Nc1oc2cc(C(F)(F)F)cnc2c1C(=O)Nc1cnccc1N1C[C@@H](N)C[C@@H](C(F)(F)F)C1` [Example 61, 2-amino-N-{4-[(3S,5R)-3-amino-5-(trifluoromethyl)piperidin-1-yl]pyridin-3-yl}-6-trifluoromethyl-furo[3,2-b]pyridine-3-carboxamide], the half-inhibitory concentration (IC50) was at most 10 nM at Pim-1, 10 to 100 nM on Pim-2 and at most 10 nM at Pim-3.
Consider `Nc1oc2cc(Cl)cnc2c1C(=O)Nc1cnccc1N1C[C@@H](N)C[C@@H](C(F)(F)F)C1` [Example 62, 2-amino-N-{4-[(3S,5R)-3-amino-5-(trifluoromethyl)piperidin-1-yl]pyridin-3-yl}-6-chlorofuro[3,2-b]pyridine-3-carboxamide], for which the half-inhibitory concentration (IC50) on Pim-1 was at most 10 nM; at Pim-2, 10 to 100 nM; at Pim-3 it was at most 10 nM.
For `Nc1oc2cc(F)cnc2c1C(=O)Nc1cnccc1N1C[C@@H](N)C[C@@H](C(F)(F)F)C1` [Example 63, 2-amino-N-{4-[(3S,5R)-3-amino-5-(trifluoromethyl)piperidin-1-yl]pyridin-3-yl}-6-fluorofuro[3,2-b]pyridine-3-carboxamide], the IC50 at Pim-1 is at most 10 nM; on Pim-2 it was 10 to 100 nM; at Pim-3, at most 10 nM.
Regarding `Cc1cncc(NC(=O)c2c(N)oc3cccnc23)c1N1CC[C@H](N)C1` [Example 64, 2-amino-N-{4-[(3S)-3-aminopyrrolidin-1-yl]-5-methylpyridin-3-yl}furo[3,2-b]pyridine-3-carboxamide], the IC50 on Pim-1 was at most 10 nM; on Pim-2, 100 to 2000 nM; at Pim-3, at most 10 nM.
As for `C[C@@H]1C[C@H](N)CN(c2ccncc2NC(=O)c2c(N)oc3cccnc23)C1` [Example 65, 2-amino-N-{4-[(3S,5R)-3-amino-5-methyl-piperidin-1-yl]pyridin-3-yl}-furo[3,2-b]pyridine-3-carboxamide], the IC50 was at most 10 nM at Pim-1, 10 to 100 nM at Pim-2 and at most 10 nM at Pim-3.
Regarding `C[C@H]1CN(c2ccncc2NC(=O)c2c(N)oc3cc(Cl)cnc23)C[C@@H](N)[C@@H]1O` [Example 66, 2-amino-N-{4-[(3R,4R,5S)-3-amino-4-hydroxy-5-methylpiperidin-1-yl]pyridin-3-yl}-6-chlorofuro[3,2-b]pyridine-3-carboxamide], the IC50 on Pim-1 is at most 10 nM; on Pim-2, 10 to 100 nM; on Pim-3 it was at most 10 nM.
As to `CCCc1cnc2c(C(=O)Nc3cnccc3N3C[C@@H](N)[C@H](O)[C@@H](C)C3)c(N)oc2c1` [Example 67, 2-Amino-N-{4-[(3R,4R,5S)-3-amino-4-hydroxy-5-methylpiperidin-1-yl]pyridin-3-yl}-6-propylfuro[3,2-b]pyridine-3-carboxamide], the IC50 on Pim-1, at Pim-2 and on Pim-3 was at most 10 nM each time.
With `C[C@H]1CN(c2ccncc2NC(=O)c2c(N)oc3cc(C(F)(F)F)cnc23)C[C@@H](N)[C@@H]1O` [Example 68, 2-Amino-N-{4-[(3R,4R,5S)-3-amino-4-hydroxy-5-methylpiperidin-1-yl]pyridin-3-yl}-6-(trifluoromethyl)furo[3,2-b]pyridine-3-carboxamide], the values for the half-maximal inhibitory concentration (IC50) on Pim-1, at Pim-2 and at Pim-3 were at most 10 nM, 10 to 100 nM and at most 10 nM, respectively.
As for `CCCc1cnc2c(C(=O)Nc3cnccc3N3C[C@@H](N)C[C@@H](C(F)(F)F)C3)c(N)oc2c1` [Example 69, 2-Amino-N-{4-[(3S,5R)-3-amino-5-(trifluoromethyl)piperidin-1-yl]pyridin-3-yl}-6-propylfuro[3,2-b]pyridine-3-carboxamide], the half-inhibitory concentration (IC50) on Pim-1, on Pim-2 and on Pim-3 was at most 10 nM throughout.
For the compound `CCCc1cnc2c(C(=O)Nc3cnccc3N3C[C@H](C)C[C@H](N)C3)c(N)oc2c1` [Example 70, 2-Amino-N-{4-[(3S,5R)-3-amino-5-methyl-piperidin-1-yl]pyridin-3-yl}-6-propylfuro[3,2-b]pyridine-3-carboxamide], the half-maximal inhibitory concentration (IC50) was at most 10 nM on Pim-1, 10 to 100 nM at Pim-2 and at most 10 nM at Pim-3.
As to `C[C@@H]1C[C@H](N)CN(c2ccncc2NC(=O)c2c(N)oc3cc(F)cnc23)C1` [Example 71, 2-Amino-N-{4-[(3S,5R)-3-amino-5-methyl-piperidin-1-yl]pyridin-3-yl}-6-fluorofuro[3,2-b]pyridine-3-carboxamide], the half-maximal inhibitory concentration (IC50) at Pim-1 is at most 10 nM; on Pim-2, 10 to 100 nM; on Pim-3, at most 10 nM.
As for `C[C@@H]1C[C@H](N)CN(c2ccncc2NC(=O)c2c(N)oc3cc(Cl)cnc23)C1` [Example 72, 2-Amino-N-{4-[(3S,5R)-3-amino-5-methyl-piperidin-1-yl]pyridin-3-yl}-6-chlorofuro[3,2-b]pyridine-3-carboxamide], the half-inhibitory concentration (IC50) on Pim-1 is at most 10 nM; on Pim-2, 10 to 100 nM; at Pim-3, at most 10 nM.
With `C[C@@H]1C[C@H](N)CN(c2ccncc2NC(=O)c2c(N)oc3cc(C(F)(F)F)cnc23)C1` [Example 73, 2-Amino-N-{4-[(3S,5R)-3-amino-5-methyl-piperidin-1-yl]pyridin-3-yl}-6-(trifluoromethyl)-furo[3,2-b]pyridine-3-carboxamide], the half-inhibitory concentration (IC50) at Pim-1 was at most 10 nM; at Pim-2, 10 to 100 nM; on Pim-3, at most 10 nM.
As for `C[C@H]1CN(c2ccncc2NC(=O)c2c(N)oc3cccnc23)C[C@@H](N)[C@@H]1O` [Example 74, 2-Amino-N-{4-[(3R,4R,5S)-3-amino-4-hydroxy-5-methylpiperidin-1-yl]pyridin-3-yl}-furo[3,2-b]pyridine-3-carboxamide], the IC50 at Pim-1 is at most 10 nM; on Pim-2, 10 to 100 nM; on Pim-3, at most 10 nM.
Turning to `CC(C)c1cnc2c(C(=O)Nc3cnccc3N3C[C@@H](N)[C@H](O)[C@@H](C)C3)c(N)oc2c1` [Example 75, 2-Amino-N-{4-[(3R,4R,5S)-3-amino-4-hydroxy-5-methylpiperidin-1-yl]pyridin-3-yl}-6-isopropylfuro[3,2-b]pyridine-3-carboxamide], the half-maximal inhibitory concentration (IC50) is at most 10 nM at Pim-1, 10 to 100 nM at Pim-2 and at most 10 nM at Pim-3.
For `Cc1cncc(NC(=O)c2c(N)oc3cccnc23)c1N1C[C@@H](N)[C@H](O)[C@@H](C)C1` [Example 76, 2-Amino-N-{5-methyl-4-[(3R,4R,5S)-3-amino-4-hydroxy-5-methylpiperidin-1-yl]pyridin-3-yl}-furo[3,2-b]pyridine-3-carboxamide], the figures for the 50% inhibitory concentration (IC50) at Pim-1, on Pim-2 and at Pim-3 were at most 10 nM, 100 to 1000 nM and at most 10 nM, respectively.
As for `CCCc1cnc2c(C(=O)Nc3cncc(C)c3N3C[C@@H](N)[C@H](O)[C@@H](C)C3)c(N)oc2c1` [Example 77, 2-Amino-N-{5-methyl-4-[(3R,4R,5S)-3-amino-4-hydroxy-5-methylpiperidin-1-yl]pyridin-3-yl}-6-propylfuro[3,2-b]pyridine-3-carboxamide], the IC50 on Pim-1, at Pim-2 and at Pim-3 was at most 10 nM each time.
Take `Cc1cncc(NC(=O)c2c(N)oc3cc(Cl)cnc23)c1N1C[C@@H](N)[C@H](O)[C@@H](C)C1` [Example 78, 2-Amino-N-{5-methyl-4-[(3R,4R,5S)-3-amino-4-hydroxy-5-methylpiperidin-1-yl]pyridin-3-yl}-6-chlorofuro[3,2-b]pyridine-3-carboxamide]: the IC50 on Pim-1 is at most 10 nM; at Pim-2 it was 10 to 100 nM; at Pim-3, at most 10 nM.
`Cc1cncc(NC(=O)c2c(N)oc3cc(C(F)(F)F)cnc23)c1N1C[C@@H](N)[C@H](O)[C@@H](C)C1` [Example 79, 2-Amino-N-{5-methyl-4-[(3R,4R,5S)-3-amino-4-hydroxy-5-methylpiperidin-1-yl]pyridin-3-yl}-6-(trifluoromethyl)-furo[3,2-b]pyridine-3-carboxamide]: the IC50 on Pim-1 was at most 10 nM; at Pim-2, 10 to 100 nM; on Pim-3, at most 10 nM.
